Source: US20210087525A1, “COST EFFECTIVE CULTURE MEDIA AND PROTOCOL FOR HUMAN INDUCED PLURIPOTENT STEM CELLS” (NORTHWESTERN UNIVERSITY, priority 2019, published 2021)

How the values were obtained:
[1] = test system: hiPSC; test: weekend-free media change / passaging schedule growth; format: cell-based, human; conditions: various doses, FIG. 8E
Description: FIG. 8A-H. Optimization of Weekend-Free Passaging Schedule that is Still Compatible with Monolayer Differentiation. (A) Establishment of an optimal 4-day media change schedule. (B) 7 day passage with media change schedule. (C) 7 day passage only schedule. (D) Comparison of growth when using two 7-day weekend-free passaging schedules with or without addition of 0.5 mg ml−1 albumin (n=2). (E) Comparison the addition of varying levels of albumin (mg ml−1) to a 7-day passage and media change schedule (n=4). (F) Cardiac differentiation efficiency when using 7-day passage and media change schedule (n=5). (G) Endothelial differentiation efficiency when using 7-day passage and media change schedule (n=6). (H) […]
With the understanding that B8 supports hiPSC growth across a variety of sub-optimal conditions (FIG. 7D), we established the suitability of this formula to skip days of media change. […] With the knowledge of the influence of various media change-skipping timelines, we devised a 7-day schedule consisting of passaging cells every 3.5 days that would allow for the skipping of media changes on the weekends, a major caveat of current hiPSC culture protocols (FIGS. 8B and 8C). […]

[2] = test system: phospho-ERK; test: stimulation of phospho-ERK in FGF2-starved hiPSC by media stored at 37° C. (Western blot); format: cell-based, human; conditions: FIG. 7E
Description: FIG. 7A-E. Qualification of B8 as Suitable for hiPSC Generation and Culture. […] (B) Expression of pluripotent markers in a variety of B8-derived hiPSC lines. (C) Example G-banding karyotype analysis of four hiPSC lines derived in B8 from blood. (D) hiPSC growth at low seeding densities in B8 compared to E8 (n=8). (E) Assessment of stimulation of phospho-ERK after media had been stored at 37° C. for 2 or 7 days, comparing in-house generated FGF2-G3 to a commercial FGF2 (Peprotech). hiPSC were starved of FGF2 for 24 h then treated with the indicated media for 1 h before collection for Western blot. Total ERK was used as a loading control.
Stock lysis buffer was prepared as 150 mM NaCl, 20 mM Tris pH 7.5, 1 mM EDTA, 1 mM EGTA, and 1% Triton X-100 and stored at 4° C. Fresh complete lysis buffer was prepared with final concentration of 1× Protease Inhibitor (Roche, 5892791001), 1× Phosphatase Inhibitor Cocktail 2 (P5726, Sigma), 1× Phosphatase Inhibitor Cocktail 3 (Sigma, P0044), 2 mM PMSF (Sigma, P7626), and 1% SDS Solution (Fisher Scientific, BP2436200). hiPSC were starved using B8 without FGF2 for 24 hours, then treated with media containing the corresponding FGF2 for 1 h. Media was then removed, and cells were washed once with DPBS, harvested with 0.5 mM EDTA in DPBS, and transferred into tubes. Samples were pelleted by centrifugation at 500×g for 3 minutes and the supernatant was discarded. The pellet was resuspend in 150 μl complete lysis buffer and incubated on ice for 30 min. Clear lysates were collected by centrifugation at 10,000×g for 10 min at 4° C. The protein concentration was measured with Qubit Protein Assay Kit (Invitrogen, Q33211) and Qubit 4 fluorometer. Lysates was stored in −80° C. before use. 10 μg of sample was prepared with NuPAGE™ LDS Sample Buffer (Invitrogen, B0007) and NuPAGE™ Reducing Agent (Invitrogen, B0009) according to the manufacturer's instructions and run on NuPAGE™ 10% Bis-Tris Gel (Invitrogen, NP0302BOX) and Mini Gel Tank system (Invitrogen, A25977) with Bolt MES SDS Running Buffer (Invitrogen, B000202) at 100 V for 1 h. […]

In the case of heparin, the “additive effect in B8” value [1] is reported as “do not have an additive effect” and the “effect of component on stability of FGF2-G3” value [2] is reported as “improved the stability of FGF2-G3”.
